Source: US9046782B2, “Resist composition for negative tone development and pattern forming method using the same” (FUJIFILM Corporation, priority 2007, dated 2015)

Test: Vapor pressure of solvents for negative tone development and rinsing
Conditions: value at 20° C.

Vapor Pressure [kPa]	Compound
0.015	CCCCCCCO [1-Heptanol]
0.13	CCCCCCO [1-Hexanol]
0.133	CCCCCC(C)O (stereo not drawn) [2-Heptanol]
0.36	CCCCC(C)=O [2-Hexanone]
0.4	CC(C)CCO [3-Methyl-1-butanol]
0.17	CCCCCCCCCC [Decane]
8.33	CCCOCCC [Dipropyl ether]
0.04	CCCCCCCCCCCC [Dodecane]
0.53	CC(=O)OCCC(C)C [Isoamyl acetate]
2.1	CC(=O)CC(C)C [Methyl isobutyl ketone]

Compound	Vapor Pressure [kPa]
CCCCOC(C)=O [Butyl acetate]	1.2
CCC(C)=O [Methyl ethyl ketone]	10.5
